Consider 24 compounds from patent US20230089247A1, “NOVEL COMPOUNDS SUITABLE FOR THE TREATMENT OF DYSLIPIDEMIA” (ZYDUS LIFESCIENCES LIMITED, priority 2019, published 2023).

The test deals with PCSK9 (Homo sapiens, UniProt Q8NBP7). The test is described as follows: BODIPY-LDL uptake assay in HepG2 cells. The note with it: 5 μg/ml PCSK9, BODIPY-LDL. It counts as cell-based. The essentials: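 Compounds pre-incubated 60 min with 5 μg/ml PCSK9 (0.2% DMSO), then added to HepG2 cells for 16 h; 1 μg/ml BODIPY-LDL added in serum-free medium for 5 h. Fluorescence (Ex 485/Em 520 nm) normalized to protein; PCSK9-only wells = 0%, no-PCSK9 wells = 100% uptake, giving percent increase in LDL uptake.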
Chain of PCSK9 (Q8NBP7 153-692): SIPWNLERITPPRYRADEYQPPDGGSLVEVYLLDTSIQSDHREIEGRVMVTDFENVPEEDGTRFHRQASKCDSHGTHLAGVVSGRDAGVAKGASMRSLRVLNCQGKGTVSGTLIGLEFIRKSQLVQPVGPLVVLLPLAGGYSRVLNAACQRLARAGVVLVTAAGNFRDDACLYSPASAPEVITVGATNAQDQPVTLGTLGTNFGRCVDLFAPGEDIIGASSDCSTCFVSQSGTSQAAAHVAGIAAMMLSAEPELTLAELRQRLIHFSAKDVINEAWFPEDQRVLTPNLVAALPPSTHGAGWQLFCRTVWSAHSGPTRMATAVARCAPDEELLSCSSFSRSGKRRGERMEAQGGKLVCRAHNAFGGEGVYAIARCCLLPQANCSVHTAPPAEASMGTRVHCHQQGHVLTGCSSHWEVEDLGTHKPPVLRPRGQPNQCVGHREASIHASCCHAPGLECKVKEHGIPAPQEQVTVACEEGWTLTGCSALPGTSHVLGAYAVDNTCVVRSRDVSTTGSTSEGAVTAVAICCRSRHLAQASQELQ

In the case of `COC1(c2ccc(C(=O)N3CCC(c4ccc(C(F)(F)F)cc4)CC3)cc2)CCNC1` (stereo not drawn) [Example 153, (4-(3-methoxypyrrolidin-3-yl)phenyl)(4-(4-(trifluoromethyl)phenyl)piperidin-1-yl)methanone], the “% increase in LDL Uptake” value reads like this: (1 μM test compound) 0%; (10 μM test compound) 47%; (30 μM test compound) 46%.

In the case of `COC1(c2cccc(C(=O)N3CCC(c4ccc(C(F)F)cc4)CC3)c2)COC1` [Example 65, (4-(4-(difluoromethyl)phenyl)piperidin-1-yl)(3-(3-methoxyoxetan-3-yl)phenyl)methanone], the “% increase in LDL Uptake” value is reported as 0% (1 μM test compound), 9% (10 μM test compound) and 66% (30 μM test compound).

Consider `O=S(=O)(c1ccc(C2(O)COC2)cc1)N1CC2CN(c3ccc(C(F)(F)F)cc3)CC2C1` (stereo not drawn) [Example 98, 3-(4-((5-(4-(trifluoromethyl)phenyl)hexahydropyrrolo[3,4-c]pyrrol-2(1H)-yl)sulfonyl)phenyl)oxetan-3-ol], for which the “% increase in LDL Uptake” value by setting is: (1 μM test compound) 0%; (10 μM test compound) 124%; (30 μM test compound) 3%.

For the compound `CCOC1(c2ccc(C(=O)N3CCC(c4ccc(C(F)(F)F)c(F)c4)CC3)cc2)COC1` [Example 42, (4-(3-ethoxyoxetan-3-yl)phenyl)(4-(3-fluoro-4-(trifluoromethyl)phenyl)piperidin-1-yl)methanone], the “% increase in LDL Uptake” value is, setting by setting: (1 μM test compound) 20%; (10 μM test compound) 25%; (30 μM test compound) 4%.

Regarding `O=C(c1ccc(C2(OCCO)COC2)cc1)N1CCC(c2ccc(C(F)(F)F)cc2)CC1` [Example 188, (4-(3-(2-hydroxyethoxy)oxetan-3-yl)phenyl)(4-(4-(trifluoromethyl)phenyl)piperidin-1-yl)methanone], the “% increase in LDL Uptake” value (1 μM test compound) was determined as 0%, the “% increase in LDL Uptake” value (10 μM test compound) is 152% and the “% increase in LDL Uptake” value (30 μM test compound) is given as 136%.

For `CC(C)(C)OC(=O)N1CCC(O)(c2ccc(C(=O)N3CCC(c4ccc(C(F)(F)F)cc4)CC3)cc2)C1` (stereo not drawn) [Example 151, tert-butyl 3-hydroxy-3-(4-(4-(4-(trifluoromethyl)phenyl)piperidine-1-carbonyl)phenyl)pyrrolidine-1-carboxylate], the “% increase in LDL Uptake” value was 34% (1 μM test compound), 0% (10 μM test compound) and 0% (30 μM test compound).

Turning to `COc1ccc(C2CCN(C(=O)c3ccc(C4(O)COC4)cc3)CC2)cc1` [Example 27, (4-(3-hydroxyoxetan-3-yl)phenyl)(4-(4-methoxyphenyl)piperidin-1-yl)methanone], the “% increase in LDL Uptake” value (1 μM test compound) was 14%, the “% increase in LDL Uptake” value (10 μM test compound) is on record as 21% and the “% increase in LDL Uptake” value (30 μM test compound) stood at 38%.

For `COC1(c2cccc(NC(=O)N3CC4CN(c5ccc(C(F)(F)F)cc5)CC4C3)c2)COC1` (stereo not drawn) [Example 183, N-(3-(3-methoxyoxetan-3-yl)phenyl)-5-(4-(trifluoromethyl)phenyl) hexahydropyrrolo[3,4-c]pyrrole-2(1H)-carboxamide], the “% increase in LDL Uptake” value is, setting by setting: (1 μM test compound) 32%; (10 μM test compound) 15%; (30 μM test compound) 88%.

As for `O=C(c1cccc(C2(O)COC2)c1)N1CC2=C(C1)CN(c1ccc(C(F)(F)F)cc1)C2` [Example 96, (3-(3-hydroxyoxetan-3-yl)phenyl)(5-(4-(trifluoromethyl)phenyl)-3,4,5,6-tetrahydropyrrolo[3,4-c]pyrrol-2(1H)-yl)methanone], the “% increase in LDL Uptake” value is, setting by setting: (1 μM test compound) 0%; (10 μM test compound) 28%; (30 μM test compound) 75%.

`O=C(c1ccc(C2(OCC3CC3)COC2)cc1)N1CCC(c2ccc(C(F)(F)F)cc2)CC1` [Example 46, (4-(3-(cyclopropylmethoxy)oxetan-3-yl)phenyl)(4-(4-(trifluoromethyl)phenyl)piperidin-1-yl)methanone]: the “% increase in LDL Uptake” value by setting is: (1 μM test compound) 28%; (10 μM test compound) 47%; (30 μM test compound) 34%.

For the compound `COC1(c2ccc(C3(O)CCN(c4ccc(C(F)(F)F)cc4)CC3)cc2)COC1` [Example 73, 4-(4-(3-methoxyoxetan-3-yl)phenyl)-1-(4-(trifluoromethyl)phenyl) piperidin-4-ol], the “% increase in LDL Uptake” value is, setting by setting: (1 μM test compound) 0%; (10 μM test compound) 8%; (30 μM test compound) 0%.

On to `O=C(c1ccc(C2(O)COC2)cc1)N1CCC(c2ccc(C(F)(F)F)cc2)C1` (stereo not drawn) [Example 102, (4-(3-hydroxyoxetan-3-yl)phenyl)(3-(4-(trifluoromethyl)phenyl)pyrrolidin-1-yl)methanone], for which the “% increase in LDL Uptake” value (1 μM test compound) came out at 4%, the “% increase in LDL Uptake” value (10 μM test compound) is on record as 31% and the “% increase in LDL Uptake” value (30 μM test compound) was determined as 25%.

As for `CCSCCOC1(c2ccc(C(=O)N3CCC(c4ccc(C(F)(F)F)cc4)CC3)cc2)COC1` [Example 189, (4-(3-(2-(ethylthio)ethoxy)oxetan-3-yl)phenyl)(4-(4-(trifluoromethyl)phenyl)piperidin-1-yl)methanone], the “% increase in LDL Uptake” value (1 μM test compound) is on record as 0%, the “% increase in LDL Uptake” value (10 μM test compound) worked out at 116% and the “% increase in LDL Uptake” value (30 μM test compound) is reported as 19%.

Take `CC(C)(CCCCCOC1(c2ccc(C(=O)N3CCC(c4ccc(C(F)(F)F)cc4)CC3)cc2)COC1)C(=O)O` [Example 109, 2,2-dimethyl-7-((3-(4-(4-(4-(trifluoromethyl)phenyl)piperidine-1-carbonyl)phenyl)oxetan-3-yl)oxy)heptanoic acid]: the “% increase in LDL Uptake” value by setting is: (1 μM test compound) 5%; (10 μM test compound) 29%; (30 μM test compound) 31%.

Consider `COC1(c2ccc(C(=O)N3CCN(c4ccc(C(F)(F)F)cn4)CC3)cc2)COC1` [Example 218, (4-(3-methoxyoxetan-3-yl)phenyl)(4-(5-(trifluoromethyl)pyridin-2-yl)piperazin-1-yl)methanone], for which the “% increase in LDL Uptake” value by setting is: (1 μM test compound) 0%; (10 μM test compound) 26%; (30 μM test compound) 85%.

For `CC(=O)OC1(c2ccc(C(=O)N3CCC(c4ccc(C(F)(F)F)cc4)CC3)cc2)COC1` [Example 36, 3-(4-(4-(4-(trifluoromethyl)phenyl)piperidine-1-carbonyl)phenyl) oxetan-3-yl acetate], the “% increase in LDL Uptake” value runs as follows: (1 μM test compound) 0%; (10 μM test compound) 9%; (30 μM test compound) 17%.

As to `O=C(c1ccc(C2(O)CSC2)cc1)N1CCC(c2ccc(C(F)(F)F)cc2)CC1` [Example 145, (4-(3-hydroxythietan-3-yl)phenyl)(4-(4-(trifluoromethyl)phenyl)piperidin-1-yl)methanone], the “% increase in LDL Uptake” value was 2% (1 μM test compound), 70% (10 μM test compound) and 0% (30 μM test compound).

Consider `O=C(c1ccc(C2(O)COC2)cc1)N1CCC(c2ccccc2)CC1` [Example 64, (4-(3-hydroxyoxetan-3-yl)phenyl)(4-phenylpiperidin-1-yl) methanone], for which the “% increase in LDL Uptake” value is, setting by setting: (1 μM test compound) 0%; (10 μM test compound) 13%; (30 μM test compound) 6%.

Turning to `COC1(c2ccc(C(=O)N3CC4CN(c5ccc(C(F)(F)F)cc5)CC4C3)cc2)CSC1` (stereo not drawn) [Example 149, (4-(3-methoxythietan-3-yl)phenyl)(5-(4-(trifluoromethyl)phenyl)hexahydropyrrolo[3,4-c]pyrrol-2(1H)-yl)methanone], the “% increase in LDL Uptake” value runs as follows: (1 μM test compound) 0%; (10 μM test compound) 30%; (30 μM test compound) 9%.

For `CC(C)COC1(c2ccc(C(=O)N3CC4CN(c5ccc(C(F)(F)F)cc5)CC4C3)cc2)COC1` (stereo not drawn) [Example 135, (4-(3-isobutoxyoxetan-3-yl)phenyl)(5-(4-(trifluoromethyl)phenyl)hexahydropyrrolo[3,4-c]pyrrol-2(1H)-yl)methanone], the “% increase in LDL Uptake” value by setting is: (1 μM test compound) 5%; (10 μM test compound) 17%; (30 μM test compound) 47%.

With `O=C(c1ccc(C2(O)COC2)cc1)N1Cc2cn(-c3ccc(C(F)(F)F)cc3)nc2C1` [Example 89, (4-(3-hydroxyoxetan-3-yl)phenyl)(2-(4-(trifluoromethyl)phenyl)-2,6-dihydropyrrolo[3,4-c]pyrazol-5(4H)-yl)methanone], the “% increase in LDL Uptake” value (1 μM test compound) worked out at 0%, the “% increase in LDL Uptake” value (10 μM test compound) worked out at 5% and the “% increase in LDL Uptake” value (30 μM test compound) is on record as 159%.

As to `O=C(c1ccc(C2(O)COC2)cc1)N1CCC(c2ccccc2C(F)(F)F)CC1` [Example 33, (4-(3-hydroxyoxetan-3-yl)phenyl)(4-(2-(trifluoromethyl)phenyl)piperidin-1-yl)methanone], the “% increase in LDL Uptake” value runs as follows: (1 μM test compound) 59%; (10 μM test compound) 73%; (30 μM test compound) 69%.

Turning to `COC1(c2ccc(NC(=O)N3CCC(c4ccc(C(F)(F)F)cc4)CC3)cc2)COC1` [Example 5, N-(4-(3-methoxyoxetan-3-yl)phenyl)-4-(4-(trifluoromethyl)phenyl) piperidine-1-carboxamide], the “% increase in LDL Uptake” value by setting is: (1 μM test compound) 41%; (10 μM test compound) 76%; (30 μM test compound) 72%.

On to `[2H]C([2H])([2H])OC1(c2cccc(C(=O)N3CCC(c4ccc(C(F)F)cc4)CC3)c2)COC1` [Example 59, (4-(4-(difluoromethyl)phenyl)piperidin-1-yl)(3-(3-(methoxy-d3)oxetan-3-yl)phenyl) methanone], for which the “% increase in LDL Uptake” value reads like this: (1 μM test compound) 0%; (10 μM test compound) 0%; (30 μM test compound) 37%.
